Experiments:
[1] = tested on: glucocorticoid response element (GRE) activity; experiment: GRE activity / GRE reporter in BEAS-2B cells; format: cell-based, human; conditions: for TGFβ1-induced suppression of the GRE activity stimulated by Dex (30 nM): PF670462 1 or 10 μM 30 min before TGFβ1 for 24 hours
Protocol: Data are presented as the means and SEM of 3 independent experiments. *P<0.05, cf corresponding Dex 30 nM response.
(§1) The methods used in Examples 1 to 5 (and 10, 19, 20) are similar to those reported in Salem et al 2012 (Br J Pharmacol. 166:2036-2048) and again in Keenan et al 2014 (Respiratory Research, e15:55) in which methods for cell culture, GRE assays and gene expression measurements are fully described. Additional methods for growth of respiratory syncytial virus (RSV) and rhinovirus (RV) are described in Collins et al 2007 (Respir Physiol Neurobiol. 2007 Jun. 15; 156(3):345-52.) and by Xatzipsalti and papdopoulos, 2007 (Contrib Microbiol. 2007; 14:33-41).

[2] = tested on: GRE-dependent gene expression; experiment: Glucocorticoid-induced gene expression in BEAS-2B cells; format: cell-based, human
Text: as §1
Data are presented as the means and SEM of 4 independent experiments. *P<0.05, cf corresponding Dex 30 nM response. […] Thus, TNFα contribution to glucocorticoid resistance, may be independent of TGFβ. The resistance is exemplified by the epithelial sodium channel alpha subunit SCNN1a which assembles into a Na channel that is thought to contribute to water reabsorption from the airspaces that are flooded during acute lung injury.
TGFβ suppression ranged in magnitude amongst the genes selected for analysis. […] TGFβ and Dex synergise in increasing the expression of PAI-1 (FIG. 24B).

[3] = BEAS-2B, Dex 100 nM, PF670462 1-10 μM prior incubation
[4] = FIG. 6A, BEAS-2B, SB431542 1 μM, PF670462 10 μM

## Nc1nccc(-c2c(-c3ccc(F)cc3)ncn2C2CCCCC2)n1 [PF670462]
[1]; BEAS 2B cells, PF670462 0.3-10 μM
  maximum effect of the glucocorticoid (budesonide, dexamethasone 1-100 nM) on GRE reporter construct: concentration dependently increased
[1]; BEAS-2B cells
  TGFβ1-induced suppression of the GRE activity stimulated by Dex (30 nM): concentration-dependently attenuated
[1]; BEAS-2B cells, listed as PF674062
  TGFβ1-induced suppression of the GRE activity stimulated by Dex (30 nM): prevents
[1]; BEAS-2B cells, RV16 0.1 or 1.0 MOI, SB431542 1 μM
  impairment of Dexamethasone 30 nM GRE responses by Rhinovirus (RV16) infection: prevented
[1]; BEAS-2B cells, cytokines each at 1 or 10 ng/ml, PF670462 1 or 10 μM
  Suppression of glucocorticoid-induced GRE responses to Dex (30 nM) induced by the combination TNFα, IL-13 and IL-4: attenuated
[2]; BEAS-2B cells, IL-13/IL-4 at 10 ng/ml, PF670462 1 or 10 μM, SB431542 1 μM
  suppression of Dex (30 nM) gene expression response (SCNN1a) induced by IL-13/IL-4: partially attenuated
[2]; BEAS-2B cells, RSV 0.1 or 1.0 MOI, pretreatment
  RSV-induced impairment of Dexamethasone ZBTB16 gene expression responses: prevented
[2]; BEAS-2B cells, RV16 1.0 MOI, pretreatment
  impairment of Dexamethasone 30 nM GILZ gene expression responses by RV16 infection: greatly diminished
[2]; BEAS-2B cells, TGFβ1 24 hours, PF670462 1 or 10 μM
  TGFβ1 induced suppression of gene expression responses to Dex (30 nM), exemplified by SCNN1a expression: concentration dependently attenuated
[2]; BEAS-2B cells, each at 0.1 ng/ml, PF670462 1 or 10 μM, SB431542 1 μM
  suppression of Dex (30 nM) gene expression response (SCNN1a) induced by the combination TNFα, IL-13 and IL-4: partially attenuated
[2]; BEAS-2B, Dex 100 nM, PF670462 1-10 μM
  TGFβ suppression of glucocorticoid-induced CDKN1C (p57kip2) expression: unaffected
[2]; [3]
  TGFβ suppression of Dex-induced expression of FKBP5: prevented
  TGFβ suppression of Dex-induced expression of GILZ: prevented
  TGFβ suppression of Dex-induced expression of SCNNIA (ENaCα): prevented
  TGFβ suppression of Dex-induced expression of ZBTB16 (PLZF): prevented
[2]; BEAS-2B, FIG. 24B, PF670462 1-10 μM
  increase in expression of PAI-1 by TGFβ and Dex: concentration-dependently reduced
[2]; [4]
  levels of GILZ in RV infected cells: increased
  levels of GILZ in uninfected cells: but not in uninfected cells
[2]; FIG. 6B, BEAS-2B, SB431542 3 μM, PF670462 3 μM
  RV infection-induced decrease of Dex-induced GILZ expression: prevented

— US11975005B2, “Treatment of respiratory diseases” (TIANLI BIOTECH PTY LTD, priority 2015, dated 2024)
